Series [1] concerns amphetamine-induced rotation vs. avoidance acquisition. The experiment in a line: R/A ratio: ED50 amphetamine-induced rotation / ED50 avoidance acquisition. The series is classed as in vivo, rat. Conditions: ratio of i.p. ED50 values in rats. How it is done: (§1) To predict the potential ability of a drug to cause EPS, the ratio of its ED50 (i.p.) for antagonism of amphetamine-induced rotation to its ED50 (i.p.) for blockade of shock avoidance acquisition in the rat, a procedure for assessing antipsychotic activity, (R/A ratio) is calculated.

The subject of a further series is extrapyramidal symptoms. Conditions: compared with chlorpromazine; cited from earlier work.
The test system of series [2] is shock avoidance acquisition in the rat. The experiment in a line: Antagonism of shock avoidance acquisition in the rat (antipsychotic activity). The series is classed as in vivo. The following applies: ip, rats, i.p., piperidylidene derivatives (Table II), read-out: Antagonism of Avoidance Acquisition, Rats, ED50 (A). The procedure: as §1
Series [3] relates to striatal dopamine receptors. The experiment in a line: Antagonism of amphetamine-induced rotation in rats with unilateral substantia nigra lesions (Ungerstedt). The format is in vivo, rat. The following applies: i.p., piperidylidene derivatives (Table II).
From the text: There is evidence that antipsychotic drugs cause EPS by interfering with neurotransmission in a nigrostriatal dopaminergic pathway. It is thought that they block dopamine receptors in the neostriatum. Therefore, the ability of a drug to block striatal dopamine receptors is a measure of its EPS liability.
To assess the potency of drugs in blocking striatal dopamine receptors a procedure was used which was developed by Ungerstedt [Ungerstedt and Arbuthnott, Brain Res. 24 485 (1970); Ungerstedt, Acta physiol. scand., Suppl. 367, 49 (1971)] using rats with unilateral lesions of the substantia nigra induced by injection of 6-hydroxydopamine. This treatment causes degeneration of the nigrostriatal dopaminergic pathway accompanied by a marked decrease in the dopamine content of the neostriatum on the side of the lesion. Animals with this lesion develop postural and motor asymmetries which are altered by drugs which affect dopaminergic activity. Amphetamine, which releases dopmine and norepinephrine from catecholaminergic neurons, causes these rats to rotate unidirectionally toward the side of the lesion. Since there is a much larger amount of dopamine to be released by amphetamine from the intact nigrostriatal neurons on the non-lesioned side than from those remaining on the lesioned side, the rotational behavior is apparently due to the preponderance of activation of striatal dopamine receptors on the intact side. The ability of a drug to antagonize the rotational behavior is therefore a measure of its ability to block striatal dopamine receptors and is indicative of its potential to produce EPS.
as §1

The mark [4] stands for this setting: piperidylidene derivatives (Table II).

Regarding `CN1CCN(C2=Nc3cc(Cl)ccc3Nc3ccccc32)CC1` [Clozapine, reference compound], in series [1] (clinically established antipsychotics (Table I)), the R/A ratio is listed as 3.8. Moreover, the “propensity to cause EPS” value in the series on extrapyramidal symptoms is on record as “known to produce EPS to a lesser extent than chlorpromazine”.

In the case of `CSc1ccc2c(c1)N(CCC1CCCCN1C)c1ccccc1S2` (stereo not drawn) [Thioridazine], in the series on extrapyramidal symptoms, the “propensity to cause EPS” value was “known to produce EPS to a lesser extent than chlorpromazine”.

A word on the ED50: it is the dose at which the effect has come halfway, by size or by number of responders. As to `OCCN1CCC(=C2c3ccccc3Oc3ccc(Br)cc32)CC1` [XXVI, 4-(2-bromo-9-xanthenylidene)-1-(β-hydroxyethyl)-piperidine], in series [2], the ED50 was found to be 0.6 mg/kg. Besides, in series [3], the “Antagonism of Amphetamine-induced Rotation, Rats, ED50 (R)” value (shortened to “Antagonism”) amounted to 2.1 mg/kg. Besides, the R/A ratio in series [1] (setting [4]) is 3.5.

For `CN1CCC(=C2c3cc(Cl)ccc3COc3ccccc32)CC1` [XXVII, 4-(9-chloro-11(6H)-dibenz[b,e]oxepinylidene)-1-methylpiperidine], the ED50 in series [2] was 1.6 mg/kg. In series [3], the “Antagonism” value is above 24 mg/kg. Also, in series [1] (setting [4]), the R/A ratio is reported as above 15.

With `CN1CCC(=C2c3ccccc3Sc3ccc(C#N)cc32)CC1` [XXVIII, 4-(2-cyano-9-thioxanthenylidene)-1-methylpiperidine], the median effective dose (ED50) in series [2] is 0.16 mg/kg. Further, the “Antagonism” value in series [3] came out at 0.67 mg/kg. Also, the R/A ratio in series [1] (setting [4]) turned out to be 4.0.

As for `OCCCN1CCC(=C2c3ccccc3Oc3ccc(Cl)cc32)CC1` [XXX, 4-(2-chloro-9-xanthenylidene)-1-(3-hydroxypropyl)-piperidine], in series [2], the median effective dose (ED50) came to 0.2 mg/kg. Moreover, in series [3], the “Antagonism” value is listed as 0.78 mg/kg. Also, the R/A ratio in series [1] (setting [4]) is 3.9.

Consider `CCCCN1CCC(=C2c3ccccc3Oc3ccc(C(F)(F)F)cc32)CC1` [XXXI, 4-(2-trifluoromethyl-9-xanthenylidene)-1-n-butylpiperidine], for which, in series [2], the ED50 was determined as 0.1 mg/kg. Besides, in series [3], the “Antagonism” value was determined as 1 mg/kg. Besides, the R/A ratio in series [1] (setting [4]) amounted to 10.

As to `CCCCN1CCC(=C2c3ccccc3Oc3ccc(Br)cc32)CC1` [XXXII, 4-(2-bromo-9-xanthenylidene)-1-n-butylpiperidine], in series [2], the ED50 turned out to be 0.6 mg/kg. In series [3], the “Antagonism” value is on record as 3.0 mg/kg. In addition, the R/A ratio in series [1] (setting [4]) was found to be 5.0.

As for `CN1CCC(=C2c3ccccc3COc3cc(Cl)ccc32)CC1` [XXXIII, 4-(3-chloro-11(6H)-dibenz[b,e]oxepinylidene)-1-methylpiperidine], the ED50 in series [2] worked out at 7.5 mg/kg. Besides, the “Antagonism” value in series [3] is above 25 mg/kg. In series [1] (setting [4]), the R/A ratio is given as above 3.

The values above are taken from patent publication US4086350A, “Pharmaceutical compositions and method of producing anti-psychotic activity without extrapyramidal symptoms” (priority 1975, dated 1978).
